# According to paper PMC10977697 (PLOS ONE, 2024):
# Where no end group is shown, it is not given here.
# System: EpCAM
# Assay: Spot phage ELISA, EpCAM
# Assay type: binding, human
# Details: spot phage ELISA signal-to-noise on EpCAM
row,Substance,S/N
1,CKQDSDCLLVCLGPNGFCG (disulfide (positions not given here)) [EpCAM EET I-II 28],18
2,GCFRHYVRCKQDSDCLAGCVCWFDWSCG (disulfide (positions not given here)) [EpCAM EET I-II 13],20.8
3,GCHRWGILCKQDSDCLAGCVCWQQGQCG (disulfide (positions not given here)) [EpCAM EET I-II 35],15
4,GCIKNNLRCKQDSDCLAGCVCWYDAACG (disulfide (positions not given here)) [EpCAM EET I-II 32],16.9
5,GCKNDKIRCKQDSDCLAGCVCWEDPSCG (disulfide (positions not given here)) [EpCAM EET I-II 22],18.9
6,GCMQWYIWCKQDSDCLAGCLYRSLPLD (disulfide (positions not given here)) [EpCAM EET I-II 9],21.9
7,GCPRILMRCKQDSDCEAICG (disulfide (positions not given here)) [EpCAM EET I-II 8],21.9
8,GCPRILMRCKQDSDCHAFCG (disulfide (positions not given here)) [EpCAM EET I-II 30],17.5
9,GCPRILMRCKQDSDCHPVCG (disulfide (positions not given here)) [EpCAM EET I-II 20],19.5
10,GCPRILMRCKQDSDCHWFCG (disulfide (positions not given here)) [EpCAM EET I-II 15],20.7
11,GCPRILMRCKQDSDCHWVCG (disulfide (positions not given here)) [EpCAM EET I-II 39],6.6
12,GCPRILMRCKQDSDCLAGCGLSSGLVVW (disulfide (positions not given here)) [EpCAM EET I-II 1],24
13,GCPRILMRCKQDSDCLAGCVCENGIMCG (disulfide (positions not given here)) [EpCAM EET I-II 25],18.6
14,GCPRILMRCKQDSDCLAGCVCPGNILCG (disulfide (positions not given here)) [EpCAM EET I-II 29],17.9
15,GCPRILMRCKQDSDCLAGCVCWPGWPCG (disulfide (positions not given here)) [EpCAM EET I-II 7],22
16,GCPRILMRCKQDSDCLAGCVCWPGWPCG (disulfide (positions not given here)) [EpCAM EET I-II 19],19.6
17,GCPRILMRCKQDSDCLAGCVLNGLVSWYT (disulfide (positions not given here)) [EpCAM EET I-II 38],7.1
18,GCPRILMRCKQDSDCLALCCNERNICG (disulfide (positions not given here)) [EpCAM EET I-II 18],19.7
19,GCPRILMRCKQDSDCLCGCV (disulfide (positions not given here)) [EpCAM EET I-II 11],21.4
20,GCPRILMRCKQDSDCLPVCG (disulfide (positions not given here)) [EpCAM EET I-II 17],19.8
21,GCPRILMRCKQDSDCMPVCG (disulfide (positions not given here)) [EpCAM EET I-II 4],23
22,GCPRILMRCKQDSDCQAFCG (disulfide (positions not given here)) [EpCAM EET I-II 23],18.7

row,Substance,S/N
1,GCPRILMRCKQDSDCQAVCG (disulfide (positions not given here)) [EpCAM EET I-II 27],18.1
2,GCPRILMRCKQDSDCQLVCLFPGLLVG (disulfide (positions not given here)) [EpCAM EET I-II 36],14.3
3,GCPRILMRCKQDSDCQPFCG (disulfide (positions not given here)) [EpCAM EET I-II 6],22.2
4,GCPRILMRCKQDSDCQPICG (disulfide (positions not given here)) [EpCAM EET I-II 21],19.1
5,GCPRILMRCKQDSDCQPVCG (disulfide (positions not given here)) [EpCAM EET I-II 5],22.8
6,GCPRILMRCKQDSDCQPVCG (disulfide (positions not given here)) [EpCAM EET I-II 10],21.9
7,GCPRILMRCKQDSDCQWFCG (disulfide (positions not given here)) [EpCAM EET I-II 12],20.9
8,GCPRILMRCKQDSDCRPVCG (disulfide (positions not given here)) [EpCAM EET I-II 34],15.7
9,GCPRILMRCKQDSDLSSWLCLCCYDSVC (disulfide (positions not given here)) [EpCAM EET I-II 37],9.5
10,GCPRILMRCKQDSELSSWLCLCCSGLVC (disulfide (positions not given here)) [EpCAM EET I-II 14],20.8
11,GCPRILMRCKQDSELSSWLCLCCSGSLC (disulfide (positions not given here)) [EpCAM EET I-II 26],18.3
12,GCPRILMRCKQDSGLSSWLCLCCSASVC (disulfide (positions not given here)) [EpCAM EET I-II 16],20.6
13,GCPRSHVRVFFSCKQDSDCLAGCVCFQVVC (disulfide (positions not given here)) [EpCAM EET I-II 31],17.4
14,GCRARPLVCKQDSDCLAGPNGFCG (disulfide (positions not given here)) [EpCAM EET I-II 24],18.6
15,GCRNTMVRCKQDSDCLAGCVCYFDPSCG (disulfide (positions not given here)) [EpCAM EET I-II 33],15.8
16,GCRRMGVRCKQDSDCLAGCVCWHDPQCG (disulfide (positions not given here)) [EpCAM EET I-II 3],23
17,GCSFPLIRCKQDSDCQLVVLWSKRFCG (disulfide (positions not given here)) [EpCAM EET I-II 2],23.6
18,GPTQSHYGQCGGAGYVGTIKCSGTTCQYVLKPQSQCLPGAS (disulfide (positions not given here)) [EpCAM CBD 54],9.4
19,GPTQSHYGQCGGDGYHGAIHCSGTTCQYVMMNRSQCLPGAS (disulfide (positions not given here)) [EpCAM CBD 59],8.9
20,GPTQSHYGQCGGDGYTGMIRCSGTTCQFVAKKHSQCLPGAS (disulfide (positions not given here)) [EpCAM CBD 40],11.8
21,GPTQSHYGQCGGDGYVGAILCSGTTCQHVSVFPSQCLPGAS (disulfide (positions not given here)) [EpCAM CBD 56],9.3
22,GPTQSHYGQCGGEGYKGAIVCSGTTCQQTKLQGSQCLPGAS (disulfide (positions not given here)) [EpCAM CBD 75],7.7

row,Substance,S/N
1,GPTQSHYGQCGGEGYLGALRCSGTTCQYTQIKPSQCLPGAS (disulfide (positions not given here)) [EpCAM CBD 8],21.8
2,GPTQSHYGQCGGFGYHGYIVCSGTTCQSRQYDNSQCLPGAS (disulfide (positions not given here)) [EpCAM CBD 21],17.2
3,GPTQSHYGQCGGFGYIGVVRCSGTTCQPHQYFRSQCLPGAS (disulfide (positions not given here)) [EpCAM CBD 32],15.1
4,GPTQSHYGQCGGFGYMGVMVCSGTTCQWIIRPFSQCLPGAS (disulfide (positions not given here)) [EpCAM CBD 25],16.9
5,GPTQSHYGQCGGFGYQGAVVCSGTTCQFTHLGHSQCLPGAS (disulfide (positions not given here)) [EpCAM CBD 88],5.9
6,GPTQSHYGQCGGFGYTGAIGCSGTTCQHVKYMRSQCLPGAS (disulfide (positions not given here)) [EpCAM CBD 7],22.6
7,GPTQSHYGQCGGGGYHGIICSGTTCQSREVVRSQCLPGAS (disulfide (positions not given here)) [EpCAM CBD 84],6.7
8,GPTQSHYGQCGGGGYIGAMPCSGTTCQPVRIP*SQCLPGAS (disulfide) [EpCAM CBD 26],16.6
9,GPTQSHYGQCGGGGYPGAIMCSGTTCQFVMAHKSQCLPGAS (disulfide (positions not given here)) [EpCAM CBD 77],7.5
10,GPTQSHYGQCGGGGYRGVVCSGTTCQPFFVFGSQCLPGAS (disulfide (positions not given here)) [EpCAM CBD 22],17.1
11,GPTQSHYGQCGGGGYYGAISCSGTTCQPVRLIRSQCLPGAS (disulfide (positions not given here)) [EpCAM CBD 37],13.0
12,GPTQSHYGQCGGHGYHGWAICSGTTCQERIRHLSQCLPGAS (disulfide (positions not given here)) [EpCAM CBD 41],11.6
13,GPTQSHYGQCGGHGYMGSIKCSGTTCQYVEIVPSQCLPGAS (disulfide (positions not given here)) [EpCAM CBD 66],8.6
14,GPTQSHYGQCGGHGYQGIMRCSGTTCQQVYMRSSQCLPGAS (disulfide (positions not given here)) [EpCAM CBD 34],15.0
15,GPTQSHYGQCGGHGYVGMIACSGTTCQYLQKVPSQCLPGAS (disulfide (positions not given here)) [EpCAM CBD 13],19.5
16,GPTQSHYGQCGGIGYMGAIQCSGTTCQPIFLRNSQCLPGAS (disulfide (positions not given here)) [EpCAM CBD 6],22.6
17,GPTQSHYGQCGGKGYFGAIVCSGTTCQSTQKYASQCLPGAS (disulfide (positions not given here)) [EpCAM CBD 62],8.8
18,GPTQSHYGQCGGKGYFGIRCSGTTCQMVTYKPSQCLPGAS (disulfide (positions not given here)) [EpCAM CBD 33],15.1
19,GPTQSHYGQCGGKGYHGFIRCSGTTCQVVYPEKSQCLPGAS (disulfide (positions not given here)) [EpCAM CBD 58],9.2
20,GPTQSHYGQCGGKGYNGYFVCSGTTCQWKAKTDSQCLPGAS (disulfide (positions not given here)) [EpCAM CBD 15],19.3
21,GPTQSHYGQCGGKGYPGAIVCSGTTCQLVQSWRSQCLPGAS (disulfide (positions not given here)) [EpCAM CBD 63],8.7
